Like-named read-outs stand apart in the source and are kept apart here.
Key:
hERG = hERG (Homo sapiens, UniProt Q12809); test: hERG inhibition
iNOS = iNOS (Homo sapiens, UniProt P35228); test: iNOS enzyme inhibition; format: biochemical
in vitro [1] = settings: dog, cultured hepatocytes
[2] = Hepatocyte elimination of parent compound, spread across species; format: in vitro ADME; settings: mouse, rat, dog, monkey, human, hepatocytes; lowest to highest species value; read-out: range of hepatocyte elimination half-life values across species
Method: Hepatocyte Elimination: (+)-NTX, AK-17 and XT-203 were incubated with cultured hepatocytes from the species listed in FIG. 9 and Table 4, and samples of the culture supernatant were collected over time. Samples were concentrated by nitrogen drying followed by reconstitution with 40% methanol for LC/MS analysis The data points were analyzed using the WinNonLin pharmacokinetics software package, and a half-life was determined that describes the rate of parent elimination. […].
(§1) In addition to the animal studies presented above in Examples 1-9, the results of in vitro testing of several of the compounds (i.e., XT-203, XT-204, and XT-206 through XT-217) are shown in Table 5 and Table 6. […]. Nine additional compounds had two or fewer off-target hits in the screening. […] These compounds spanned all of the tested N-modification classes. […]. Thus, the medicinal chemistry approach taken in this series of fluorinated compounds can yield low off-target activity and longer metabolic lifetime while preserving TLR4 antagonism. It is appreciated that further development of compounds in this class, using techniques known to those skilled in the art, may yield additional compounds with desirable pharmacologic and toxicologic characteristics.

in vitro [3] = settings: monkey, cultured hepatocytes
in vitro [4] = settings: human, cultured hepatocytes
[5] = tested on: TLR4 (LPS-stimulated NO production, BV-2 mouse microglia cell line); test: NO assay: inhibition of LPS-induced NO production in BV-2 microglia (iNOS cellular); format: cell-based; settings: Mus musculus
Text: NO assay: Microglia are the resident cells of the innate immune system in the central nervous system, and TLR4 is primarily expressed by microglia rather than astrocytes or neurons in the CNS. Given this expression profile, the BV-2 mouse microglia cell line was used as the model system of microglia, as these cells recapitulate many of the responses of primary microglia with high fidelity. TLR4 activation induces the downstream production of the inflammatory factor NO, which contributes to the development of neuropathic pain and drug addiction. BV-2 murine microglia were grown in supplemented DMEM (including 10% FBS, 50 unit mL^−1 penicillin, 50 μg·mL^−1 streptomycin). BV-2 cells were detached from the flask by trypsin digestion when ˜80% confluence was reached. Cells were seeded at a density of 4×10^4 cells per well in 96-well plates. After overnight incubation, media was aspirated and changed to DMEM media without FBS. Cells were then treated with LPS (200 ng/ml) and different concentrations of the testing compounds. After 24 h treatment, 100 μL of supernatant media was removed after cells were treated for 24 h and added to flat black 96-well microfluor plates (Thermo Scientific, MA, USA). Subsequently, 10 μL of 2, 3-diaminonaphthalene (0.05 mg·mL^−1 in 0.62 M HCl) was added to each well and incubated for 15 min. The reaction was quenched by addition of 5 μL of 3 M NaOH and the plate was read on a Beckman Coulter DTX880 reader (Fullerton, Calif., USA) with excitation at 360 nm and emission at 430 nm.
N chain NTX: This experimentation involved an in vitro assay where mouse BV2 cells were treated with LPS, which results in the release of nitric oxide (NO). Blockade of TLR4 activity results in reduced NO production. Therefore, IC50 values were determined for test compounds that antagonize TLR4 activity. A series of test compounds were prepared, with different N-alkyl chains replacing the cyclopropyl methyl found in naltrexone. Cell viability was also measured by a standard assay, e.g., measurement of the release of cytoplasm-resident enzymes in the tissue culture supernatant or media to detect cell loss/lysis/rupture. A dose-inhibition curve was generated by testing the TLR4 antagonist compound for the ability to block LPS-stimulated iNOs induction. In FIG. 7, the inhibition levels across a range of doses are graphed, along with a regression curve. The IC50 value—50% inhibition level—is also provided, graphed against the length of the alkyl chain. Note that with longer N-alkyl chain the IC50 was reduced, although cell viability became problematic.
FIGS. 8B to 8D show the results of the inhibition of NO production from LPS-stimulated BV2 cells using the assay described above.

Human hepatocytes = test: Hepatocyte elimination of parent compound; settings: cultured hepatocytes
[6] = tested on: off-target screening panel; test: Off-target inhibition screening (whole panel); settings: 10 μM test concentration; hit = inhibition at or above the 50% level
Text: as §1

in vitro [7] = settings: mouse, hepatocytes
in vitro [8] = settings: rat, cultured hepatocytes
Adrenergic α2A = biological target: T1, Adrenergic α2A (Homo sapiens, UniProt P08913); test: Off-target screening; format: binding; settings: 10 μM
T1 sequence (P08913 1-465): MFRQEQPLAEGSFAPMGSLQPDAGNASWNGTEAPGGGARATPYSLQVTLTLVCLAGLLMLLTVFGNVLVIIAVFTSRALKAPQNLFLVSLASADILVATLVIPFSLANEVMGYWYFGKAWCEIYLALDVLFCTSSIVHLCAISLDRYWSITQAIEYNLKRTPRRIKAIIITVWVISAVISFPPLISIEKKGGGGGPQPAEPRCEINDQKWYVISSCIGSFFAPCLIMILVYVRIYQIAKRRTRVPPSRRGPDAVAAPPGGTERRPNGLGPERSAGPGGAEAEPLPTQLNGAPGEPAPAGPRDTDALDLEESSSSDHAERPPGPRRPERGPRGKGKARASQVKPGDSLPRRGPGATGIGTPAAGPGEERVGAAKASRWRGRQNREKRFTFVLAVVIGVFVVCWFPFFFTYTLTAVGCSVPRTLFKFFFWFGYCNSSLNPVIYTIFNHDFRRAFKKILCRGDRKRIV
Text: as §1

[9] = tested on: CCI neuropathic pain (mechanical allodynia); test: Rat CCI model, oral and subcutaneous phases (Study R042); format: in vivo; settings: gabapentin 200 mg/kg
Method: Rat chronic constriction injury model-Oral and subcutaneous (+)-NTX and XT-203: An efficacy study was conducted in the rat chronic constriction injury (CCI) model (Study R042). The study design comprised two phases. A five-day period of oral (PO) dosing and behavioral testing was followed by a five-day period of subcutaneous (SC) dosing, with a two-day washout period between these periods. Dosing on each day was performed three times a day (TID). Behavioral testing for mechanical allodynia was performed on the first and fifth days of dosing, at three times on those days: before the first dose of the day, 30 minutes after the first dose of the day, and 30 minutes after the second dose of the day. Thus, day 5 testing is designated as pre5.1 (before the first dose of the day), 5.1 (fifth day, after first dose) or 5.2 (fifth day, after second dose). On day 5 of the subcutaneous dosing phase, a second testing period was introduced 60 minutes after the second dose. (+)-NTX (6, 18, and 60 mg/kg) and XT-203. Mechanical allodynia was tested manually, using the Chaplan up-down testing method. The results are shown in FIGS. 10A and 10B, with the oral (PO) phase presented as the first pair of graphs. After the two-day washout, the subcutaneous (SC) phase was carried out with the results shown in the graphs at FIGS. 10C and 10D.
The CCI model was well established in this study, with allodynic response thresholds between 2 and 3 grams (presurgical baseline thresholds at 15 g, not shown). […] This is especially remarkable given the extremely rapid metabolism and pharmacokinetics of (+)-NTX (see FIG. 9). Here, the dampening of efficacy due to lack of significant amounts of parent compound is particularly evident. Thus, the appropriate dose-ranging conditions in animal models should reflect (+)-NTX serum levels during efficacy testing, to match pharmacokinetics with pharmacodynamics. […] Efficacy is only observed after the first dose on day 5. Thus, changes designed to improve compound stability do provide improved efficacy.

Adenosine A2A = Adenosine A2A (Homo sapiens, UniProt P29274); test: Off-target screening; format: binding
Text: as §1

Cannabinoid CB1 = Cannabinoid CB1 (Homo sapiens, UniProt P21554); test: Off-target screening; format: binding
Text: as §1

[10] = tested on: surgical pain (paw incision), paw withdrawal threshold; test: Mouse paw incision model, morphine potentiation
Method: Manual testing with von Frey hairs was performed at the times indicated in the graphs. The animals were placed in individual Perspex boxes on a raised metal mesh for at least 40 min before the test. A series of graduated von Frey hairs (0.07, 0.16, 0.4, 0.6, and 1.0 g) were applied to the plantar surface of the left paw, in sequence. Each von Frey hair was applied 10 times on a one-sec-on-one-sec-off protocol, with each hair slightly bent. A paw withdrawal upon this hind-paw stimulation for a given von Frey hair registering 5 responses out of 10 trials was recorded the paw withdrawal threshold (PWT). A baseline PWT was determined each day for 3 days before surgery. […] In addition, the PWT was determined before dosing and 1, 2, and 4 hours after dosing.
In both cases, morphine was dosed at 1 mg/kg IP.

[11] = tested on: bone fracture pain, paw withdrawal threshold; test: Mouse bone fracture model, intraperitoneal; format: in vivo
Text: Each group had n=10 mice.

[12] = read-out: iNOS enzyme, Table 6, unit inferred
[13] = Microglia, Table 6, unit inferred, footnote: Indicator of TL4 antagonism
[14] = LPS (200 ng/ml), 24 h, BV-2 cells, Table 3

Chain of iNOS (P35228 whole entry): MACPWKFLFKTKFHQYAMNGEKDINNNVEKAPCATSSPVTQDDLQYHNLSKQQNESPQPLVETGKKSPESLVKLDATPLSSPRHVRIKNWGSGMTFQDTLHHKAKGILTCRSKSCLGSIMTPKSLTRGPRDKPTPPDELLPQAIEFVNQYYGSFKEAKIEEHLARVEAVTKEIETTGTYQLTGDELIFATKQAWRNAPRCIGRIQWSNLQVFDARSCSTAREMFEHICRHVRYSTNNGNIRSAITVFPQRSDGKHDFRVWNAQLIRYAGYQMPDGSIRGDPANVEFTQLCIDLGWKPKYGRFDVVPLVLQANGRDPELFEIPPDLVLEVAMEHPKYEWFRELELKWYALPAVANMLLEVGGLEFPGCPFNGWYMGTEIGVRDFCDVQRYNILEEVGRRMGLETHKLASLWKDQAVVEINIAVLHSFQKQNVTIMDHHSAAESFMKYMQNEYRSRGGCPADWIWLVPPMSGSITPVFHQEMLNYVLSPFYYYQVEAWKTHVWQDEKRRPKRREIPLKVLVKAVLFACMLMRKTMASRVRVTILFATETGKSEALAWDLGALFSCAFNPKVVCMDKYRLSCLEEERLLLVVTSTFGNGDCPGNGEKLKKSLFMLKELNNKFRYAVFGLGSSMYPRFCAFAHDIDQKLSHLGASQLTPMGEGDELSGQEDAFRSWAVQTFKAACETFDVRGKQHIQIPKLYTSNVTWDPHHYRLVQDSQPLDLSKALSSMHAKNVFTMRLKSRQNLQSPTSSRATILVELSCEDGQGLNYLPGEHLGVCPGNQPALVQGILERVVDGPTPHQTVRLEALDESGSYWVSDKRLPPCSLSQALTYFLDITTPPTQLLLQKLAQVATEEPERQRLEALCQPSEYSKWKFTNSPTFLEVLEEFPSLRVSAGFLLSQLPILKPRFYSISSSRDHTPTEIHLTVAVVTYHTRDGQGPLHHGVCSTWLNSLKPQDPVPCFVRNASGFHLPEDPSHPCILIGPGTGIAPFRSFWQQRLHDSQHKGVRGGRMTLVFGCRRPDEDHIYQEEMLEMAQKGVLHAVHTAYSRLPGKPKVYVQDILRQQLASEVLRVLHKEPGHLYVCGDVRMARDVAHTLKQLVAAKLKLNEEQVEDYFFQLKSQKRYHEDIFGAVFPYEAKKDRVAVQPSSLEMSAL
Chain of hERG (Q12809 whole entry): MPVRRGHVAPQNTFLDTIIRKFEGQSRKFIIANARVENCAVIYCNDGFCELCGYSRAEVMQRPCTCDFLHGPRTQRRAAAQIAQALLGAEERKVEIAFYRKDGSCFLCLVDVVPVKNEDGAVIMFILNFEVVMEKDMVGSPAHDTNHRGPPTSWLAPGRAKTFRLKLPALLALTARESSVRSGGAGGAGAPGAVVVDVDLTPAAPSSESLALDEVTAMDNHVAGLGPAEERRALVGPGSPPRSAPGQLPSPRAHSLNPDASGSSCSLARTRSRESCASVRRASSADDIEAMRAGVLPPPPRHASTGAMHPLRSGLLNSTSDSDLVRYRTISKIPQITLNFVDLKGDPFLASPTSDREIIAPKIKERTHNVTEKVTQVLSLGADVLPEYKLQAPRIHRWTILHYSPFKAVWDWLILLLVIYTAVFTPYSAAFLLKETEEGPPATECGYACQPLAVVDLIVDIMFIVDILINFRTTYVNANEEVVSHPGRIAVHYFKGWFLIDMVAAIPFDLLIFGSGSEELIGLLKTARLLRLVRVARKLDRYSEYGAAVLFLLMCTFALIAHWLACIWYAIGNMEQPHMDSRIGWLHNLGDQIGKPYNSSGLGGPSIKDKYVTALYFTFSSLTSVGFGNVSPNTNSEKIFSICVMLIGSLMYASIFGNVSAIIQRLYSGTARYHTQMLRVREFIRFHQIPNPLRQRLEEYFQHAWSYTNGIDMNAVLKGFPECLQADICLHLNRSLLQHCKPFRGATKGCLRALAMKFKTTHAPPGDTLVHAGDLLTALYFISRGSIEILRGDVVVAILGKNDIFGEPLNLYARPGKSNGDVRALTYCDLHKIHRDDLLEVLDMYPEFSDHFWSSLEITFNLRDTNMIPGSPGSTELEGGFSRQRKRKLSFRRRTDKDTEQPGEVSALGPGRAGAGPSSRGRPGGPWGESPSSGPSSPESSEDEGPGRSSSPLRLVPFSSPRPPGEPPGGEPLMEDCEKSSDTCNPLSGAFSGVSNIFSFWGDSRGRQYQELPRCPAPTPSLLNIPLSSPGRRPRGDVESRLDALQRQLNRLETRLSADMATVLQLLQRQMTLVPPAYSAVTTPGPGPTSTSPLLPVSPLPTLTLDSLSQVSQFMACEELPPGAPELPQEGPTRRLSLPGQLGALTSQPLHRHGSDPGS
Chain of Cannabinoid CB1 (P21554 whole entry): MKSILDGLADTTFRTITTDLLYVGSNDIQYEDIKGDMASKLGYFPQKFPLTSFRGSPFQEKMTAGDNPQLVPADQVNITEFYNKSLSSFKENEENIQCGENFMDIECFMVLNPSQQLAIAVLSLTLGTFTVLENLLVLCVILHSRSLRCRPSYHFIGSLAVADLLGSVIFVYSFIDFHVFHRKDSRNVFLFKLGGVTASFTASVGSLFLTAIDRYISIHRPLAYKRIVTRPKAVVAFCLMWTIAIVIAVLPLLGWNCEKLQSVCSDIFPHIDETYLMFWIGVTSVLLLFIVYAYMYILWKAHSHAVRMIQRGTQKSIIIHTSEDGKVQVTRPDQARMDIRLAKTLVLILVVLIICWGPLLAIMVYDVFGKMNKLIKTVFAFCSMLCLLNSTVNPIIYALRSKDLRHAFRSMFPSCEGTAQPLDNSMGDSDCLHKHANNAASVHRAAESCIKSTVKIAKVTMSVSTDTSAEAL
Chain of Adenosine A2A (P29274 whole entry): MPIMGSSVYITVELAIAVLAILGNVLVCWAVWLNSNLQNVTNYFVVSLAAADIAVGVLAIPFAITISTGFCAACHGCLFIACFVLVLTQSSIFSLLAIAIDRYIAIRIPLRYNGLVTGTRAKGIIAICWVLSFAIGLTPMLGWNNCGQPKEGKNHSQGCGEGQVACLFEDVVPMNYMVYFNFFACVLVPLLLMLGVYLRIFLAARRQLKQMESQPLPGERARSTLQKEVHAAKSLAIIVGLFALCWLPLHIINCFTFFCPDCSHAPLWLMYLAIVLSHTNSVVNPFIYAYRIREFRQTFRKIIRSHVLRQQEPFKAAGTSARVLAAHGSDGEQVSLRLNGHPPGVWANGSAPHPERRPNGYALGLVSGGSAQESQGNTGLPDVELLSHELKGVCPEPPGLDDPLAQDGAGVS

COc1ccc2c3c1O[C@@H]1C(F)CCC4[C@H](C2)N(C(=O)C2CC2)CC[C@]341 (some centres unmarked) [XT-206]
IC50 (hERG): > 10 µM | IC50 (iNOS): > 10 µM | IC50 (iNOS; [12]): > 10 µM | half-life (in vitro [1]): 80.8 min | half-life [2]: 14.4 to 120 min | half-life (in vitro [3]): 15.5 min | half-life (in vitro [4]): 120 min | IC50 [5, 13]: > 10 µM | IC50 [5, 14]: > 10 µM | parent duration in human hepatocytes relative to XT-203 (Human hepatocytes): longer parent duration than XT-203 | off-target hits in the screening [6]: no off-target hits and none | half-life (in vitro [7]): 18.3 min | half-life (in vitro [8]): 14.4 min

COc1ccc2c3c1O[C@@H]1C(F)CCC4[C@H](C2)N(C2CC2)CC[C@]341 (some centres unmarked) [XT-214]
IC50 (hERG): > 10 µM | half-life (in vitro [1]): 37.7 min | half-life (in vitro [3]): 14.1 min | half-life (in vitro [4]): 52.9 min | inhibition at 10 µM (Adrenergic α2A): 51% | IC50 [5, 13]: > 10 µM | IC50 [5, 14]: > 10 µM | off-target hits in the screening [6]: one off-target hit | half-life (in vitro [7]): 18.7 min | half-life (in vitro [8]): 11.8 min

NCC1(CC(=O)O)CCCCC1 [gabapentin, reference compound]
reversal of mechanical allodynia, positive control [9]: reversals of allodynia

COc1ccc2c3c1O[C@@H]1C(F)CCC4[C@H](C2)N(S(=O)(=O)C2CC2)CC[C@]341 (some centres unmarked) [XT-212]
IC50 (hERG): > 10 µM | half-life (in vitro [1]): 86.4 min | half-life (in vitro [3]): 21.2 min | half-life (in vitro [4]): 61.2 min | IC50 [5, 13]: > 10 µM | IC50 [5, 14]: > 10 µM | parent duration in human hepatocytes relative to XT-203 (Human hepatocytes): longer parent duration than XT-203 | off-target hits in the screening [6]: no off-target hits and none | half-life (in vitro [7]): 19.8 min | half-life (in vitro [8]): 14.4 min

COc1ccc2c3c1O[C@@H]1C(F)CCC4[C@H](C2)N(S(=O)(=O)c2ccccc2)CC[C@]341 (some centres unmarked) [XT-208]
IC50 (hERG): > 10 µM | IC50 (iNOS): > 10 µM | IC50 (iNOS; [12]): > 10 µM | half-life (in vitro [1]): 14.6 min | half-life [2]: 8.7 to 19.7 min | half-life (in vitro [3]): 8.7 min | half-life (in vitro [4]): 19.7 min | inhibition at 10 µM (Adenosine A2A): 64% | inhibition at 10 µM (Cannabinoid CB1): 54% | IC50 [5, 13]: > 10 µM | IC50 [5, 14]: > 10 µM | off-target hits in the screening [6]: two off-target hits | half-life (in vitro [7]): 10.9 min | half-life (in vitro [8]): 12.7 min

COc1ccc2c3c1O[C@@H]1C(F)CCC4[C@H](C2)N(C(=O)Cc2ccccc2)CC[C@]341 (some centres unmarked) [XT-211]
IC50 (hERG): > 10 µM | half-life (in vitro [1]): 19.1 min | half-life (in vitro [3]): 12.9 min | half-life (in vitro [4]): 32.5 min | IC50 [5, 13]: > 10 µM | IC50 [5, 14]: > 10 µM | off-target hits in the screening [6]: no off-target hits and none | half-life (in vitro [7]): 19 min | half-life (in vitro [8]): 11.9 min

CN1CC[C@]23c4c5ccc(O)c4O[C@H]2[C@@H](O)C=C[C@H]3[C@H]1C5 [Morphine, morphine]
PWT, 2 hours after dosing ([10]; morphine 1 mg/kg IP alone): 0.11 ± 0.033 g | PWT, 4 hours after dosing ([10]; morphine 1 mg/kg IP alone): 0.10 ± 0.014 g | PWT, 1 hour after dosing ([10]; morphine 1 mg/kg IP alone, baseline 0.11±0.015 g): 0.20 ± 0.046 g | adverse effects during observation ([10]; morphine dose groups): No significant adverse effects | effect on PWT in mouse fracture pain model ([11]; IP, morphine 1, 2, 3, 5 mg/kg, XT-203 6, 10, 18, 30 mg/kg, (+)-NTX 6, 18, 30, 60 mg/kg, dose-dependent): increased the PWT | behaviour observed at 5 mg/kg ([11]; mouse fracture model, 5 mg/kg IP, 1 hour after dosing, gone from two hours onward): some mice showing walking anti-clockwise

COc1ccc2c3c1O[C@@H]1C(F)CCC4[C@H](C2)N(S(=O)(=O)Cc2ccccc2)CC[C@]341 (some centres unmarked) [XT-217]
IC50 (hERG): > 10 µM | half-life (in vitro [1]): 9.7 min | half-life [2]: 9.2 to 14.1 min | half-life (in vitro [3]): 9.2 min | half-life (in vitro [4]): 14.1 min | inhibition at 10 µM (Adenosine A2A): 61% | inhibition at 10 µM (Cannabinoid CB1): 56% | IC50 [5, 13]: > 10 µM | IC50 [5, 14]: > 10 µM | off-target hits in the screening [6]: two off-target hits | half-life (in vitro [7]): 12.6 min | half-life (in vitro [8]): 10.2 min

COc1ccc2c3c1O[C@@H]1C(F)CCC4[C@H](C2)N(C(=O)c2ccccc2)CC[C@]341 (some centres unmarked) [XT-207]
IC50 (hERG): > 10 µM | IC50 (iNOS): > 10 µM | IC50 (iNOS; [12]): > 10 µM | half-life (in vitro [1]): 39.8 min | half-life (in vitro [3]): 12.4 min | half-life (in vitro [4]): 37.4 min | IC50 [5, 13]: > 10 µM | IC50 [5, 14]: > 10 µM | off-target hits in the screening [6]: no off-target hits and none | half-life (in vitro [7]): 22.4 min | half-life (in vitro [8]): 11.6 min

From patent US11505556B2, “Halogenated derivatives of morphinans and uses thereof” (Xalud Therapeutics, Inc., priority 2017, dated 2022)
